The test deals with HCV replicon Luc Neo ET. In words: HCV replication inhibition assay (replicon assay, luciferase reporter). The conditions noted are these: Huh-7 cell lines containing HCV replicon Luc Neo ET, 72 hours with compound, 1 % DMSO, firefly luciferase reporter, concentration that produces 50 % of replication inhibition, read-out: EC50 Replicon LucneoET. Format: cell-based. As for the experimental part:
The compounds according to the present invention were tested for their ability to inhibit HCV replication as follows:
Huh-7 cell lines containing HCV replicon Luc Neo ET (Reblikon) were maintained in DMEM supplemented with 10% SVF, 2 mM glutamine, and 1 X NEAA, 100 U / ml penicillin, and 100 µg / ml streptomycine. Cells were maintained in medium supplemented with 0.5 mg/ml G418, at 37°C and 5% CO2 in a humidified atmosphere. Cells were dissociated at sub confluence with trypsin EDTA 1X.
Replicon Luc Neo ET is bicistronic expression constructs (Lohmann et al, 1999, Science 285, 110-113). In brief, the structural genes of the HCV genome were replaced by heterologous sequences; the gene encoding the neomycin phosphotransferase (NPT) and the internal ribosome entry site (IRES) of the encephalomyocarditis virus (EMCV). The bicistronic construct is therefore composed of the following elements: HCV-IRES nucleotides 1-389 for Luc Neo ET, the NPT gene, the EMCV-IRES directing translation of downstream HCV sequences from NS2 or NS3 up to the authentic 3' end of the genome. HCV Polyprotein of Luc Neo ET replicon harbours the cell culture adaptive mutations E1202G, T1280I, K1846T. G418-resistance is only possible with cells containing high amounts of replicon.
Cells were dissociated the day before addition of compounds and seeded in 96 well-plates at a final concentration of 27 777.77 cells.ml^-1.cm^-2 in 90µl final volume of culture medium per well and were maintained at 37°C and 5% CO2 in a humidified atmosphere for 24 hours. 10 µl of compounds to be tested were added 24 hours after seeding. Final concentration of DMSO was 1 %. Cells were incubated in the presence of compounds for 72 hours after which expression of firefly luciferase reporter gene was quantified. Briefly, culture medium was removed and cells were lysed by addition of 100 µl of lysis buffer containing 125 mM Tris Phosphate ph 7.8, 10 mM EDTA, 5 mM DTT, 50 % glycerol and 5 % Triton. Plates were vortexed 10 min at 1300 rpm. 100µl of luciferin solution 1X were added to each well. Luciferin solution contained 40 mM Tris Phosphate ph 7.8, 0.2 mM EDTA, 67 mM DTT, 2.14 mM MgCl2, 5.4 mM MgSO4, 4.7 x 10^-4 M luciferin, 5.3 x 10^-4 M ATP and 2.7 x 10^-4 M Acetyl co enzyme A. Luminescence was immediately measured with Berthold Microlumat Plus LB 96V luminometer with an integration of 1 sec. Inhibition was calculated using the formula: % inhibition = 1-[(RLUsample-RLUbackground)/(RLUsignal-RLUbackground)].
The Table 1 below illustrates data on the biological activity of compounds of the present invention. Results are expressed as EC50 which is the concentration that produces 50 % of replication inhibition. Table 1. HCV replication inhibition assay
(Replicon systems follow genome replication, usually without infectious particles.)

Where two headings read alike, the source gives them in different places.

What is called EC50 is the concentration needed to bring the measured effect to its halfway point.

Take “2-{3-[2-(4-chlorophenyl)ethyl]-1-(4-fluorophenyl)-4-hydroxy-5-oxo-2-sulfanylideneimidazolidin-4-yl}-N-[4-(dimethylamino)phenyl]acetamide [Example 65]”: the EC50 was under 0.5 µM. On the same count and under the same terms, for “2-{3-[2-(4-chlorophenyl)ethyl]-1-(4-fluorophenyl)-5-oxo-2-sulfanylideneimidazolidin-4-yl}-N-(5-methoxypyridin-2-yl)acetamide [Example 67]” the value was under 5 µM; for “2-{3-[2-(4-chlorophenyl)ethyl]-4-hydroxy-5-oxo-1-phenyl-2-sulfanylideneimidazolidin-4-yl}-N-[4-(dimethylamino)phenyl]acetamide [Example 63]”, under 0.5 µM; for “2-{3-[2-(4-chlorophenyl)ethyl]-5-oxo-1-phenyl-2-sulfanylideneimidazolidin-4-yl}-N-(pyridin-3-ylmethyl)acetamide [Example 56]”, under 5 µM. On the same count and under the same terms, for `CCCOc1ccc(NC(=O)CC2C(=O)N(c3ccccc3)C(=S)N2CCc2ccccc2)cc1` (centres unmarked) [Example 1] the value was under 0.5 µM; for `CCCOc1ccc(NC(=O)CC2C(=O)N(c3ccccc3)C(=S)N2CCc2ccc(Cl)cc2)cc1` (centres unmarked) [Example 2], under 0.5 µM. Regarding `COc1ccc(CCN2C(=S)N(c3ccccc3)C(=O)C2CC(=O)Nc2ccc(OC)cc2)cc1` (centres unmarked) [Example 3], the EC50 is under 0.5 µM. The same measure, in the same setting: the value for `COc1ccc(NC(=O)CC2C(=O)N(c3ccccc3)C(=S)N2CCc2ccc(OC)c(OC)c2)cc1` (centres unmarked) [Example 4] was under 5 µM; that for `COc1ccc(NC(=O)CC2C(=O)N(c3ccccc3)C(=S)N2CCc2ccc(Cl)cc2)cc1` (centres unmarked) [Example 5] was under 0.5 µM.

Consider `COc1ccc(CCN2C(=S)N(c3ccc(F)cc3)C(=O)C2CC(=O)Nc2ccc(OC)cc2)cc1` (centres unmarked) [Example 6], for which the EC50 is under 0.5 µM. The same measure, in the same setting: for `CCOc1ccc(NC(=O)CC2C(=O)N(c3ccccc3)C(=S)N2CCc2ccccc2F)cc1` (centres unmarked) [Example 7] the value was under 0.5 µM.

Take `O=C(CC1C(=O)N(c2ccc(F)cc2)C(=S)N1CCc1ccc(Cl)cc1)Nc1ccccc1` (centres unmarked) [Example 8]: the EC50 was under 0.5 µM. `COc1ccc(NC(=O)CC2C(=O)N(c3ccc(F)cc3)C(=S)N2CCc2ccc(Cl)cc2)cc1` (centres unmarked) [Example 9]: the EC50 is under 0.5 µM. The same measure, in the same setting: the value for `CCCOc1ccc(NC(=O)CC2C(=O)N(c3ccccc3)C(=S)N2CCCN2CCN(Cc3ccccc3)CC2)cc1` (centres unmarked) [Example 10] was under 5 µM; that for `O=C(CC1C(=O)N(c2ccccc2)C(=S)N1CCc1ccc(Cl)cc1)Nc1ccccc1` (centres unmarked) [Example 11] was under 5 µM. Still for that read-out and setting: the value for `COc1ccc(NC(=O)CC2C(=O)N(c3ccccc3)C(=O)N2CCC2=CCCCC2)cc1` (centres unmarked) [Example 12] was under 0.5 µM; that for `COc1ccc(NC(=O)CC2C(=O)N(c3ccc(F)cc3)C(=S)N2CCCN2CCN(Cc3ccccc3)CC2)cc1` (centres unmarked) [Example 13] was under 0.5 µM; that for `COc1ccc(NC(=O)CC2C(=O)N(c3ccc(F)cc3)C(=S)N2CCCN2CCN(c3ccccc3)CC2)cc1` (centres unmarked) [Example 14] was under 0.5 µM. Still for that read-out and setting: the value for `CCOc1ccc(NC(=O)CC2C(=O)N(c3ccccc3)C(=O)N2CCC(C)C)cc1` (centres unmarked) [Example 15] was under 5 µM; that for `COc1ccc(NC(=O)CC2C(=O)N(c3ccc(F)cc3)C(=O)N2CCc2cccs2)cc1` (centres unmarked) [Example 16] was under 5 µM. `COc1ccc2[nH]cc(CCN3C(=S)N(c4ccccc4)C(=O)C3CC(=O)Nc3ccccc3)c2c1` (centres unmarked) [Example 17]: the EC50 is under 5 µM. Same read-out and setting: the value for `CCOc1cccc(NC(=O)CC2C(=O)N(c3ccccc3)C(=S)N2CCc2ccc(F)cc2)c1` (centres unmarked) [Example 18] was under 5 µM; that for `CCOc1ccc(NC(=O)CC2C(=O)N(c3cccc(C(F)(F)F)c3)C(=S)N2CCc2ccccc2F)cc1` (centres unmarked) [Example 19] was under 5 µM. Consider `O=C(CC1C(=O)N(c2ccc(Cl)cc2)C(=S)N1CCc1ccc(Cl)cc1)Nc1ccc(F)cc1` (centres unmarked) [Example 20], for which the EC50 is under 30 µM.

On to `O=C(CC1C(=O)N(c2ccccc2)C(=S)N1CCc1ccccc1)Nc1ccc(Cl)cc1` (centres unmarked) [Example 22], for which the EC50 was under 5 µM. The same measure, in the same setting: for `Cc1ccsc1CCN1C(=S)N(c2ccccc2)C(=O)C1CC(=O)Nc1ccc(F)cc1` (centres unmarked) [Example 23] the value was under 5 µM. The same measure, in the same setting: the value for `O=C(CC1C(=O)N(c2ccccc2)C(=S)N1CCc1ccc(Cl)cc1)Nc1ccc(Cl)cc1` (centres unmarked) [Example 24] was under 5 µM.

Turning to `COC(=O)c1ccc(NC(=O)CC2C(=O)N(c3ccccc3)C(=S)N2CCc2ccc(Cl)cc2)cc1` (centres unmarked) [Example 25], the EC50 is under 5 µM.

On to `COc1ccc(NC(=O)CC2C(=O)N(c3ccc(C)cc3)C(=S)N2CCc2ccccc2)cc1` (centres unmarked) [Example 26], for which the EC50 was under 5 µM. The same measure, in the same setting: for `COCCCN1C(=S)N(c2ccc(F)cc2)C(=O)C1CC(=O)Nc1ccc(OC)cc1` (centres unmarked) [Example 27] the value was under 30 µM; for `CCCOc1ccc(NC(=O)CC2C(=O)N(C3CCCCC3)C(=S)N2Cc2ccc(OC)cc2)cc1` (centres unmarked) [Example 29], under 30 µM; for `CCCOc1ccc(NC(=O)CC2C(=O)N(c3ccc(F)cc3)C(=S)N2CCCN2CCN(CC)CC2)cc1` (centres unmarked) [Example 31], under 30 µM. The same measure, in the same setting: for `COc1ccc(NC(=O)CC2C(=O)N(Cc3ccccc3)C(=S)N2CCc2ccc(Cl)cc2)cc1` (centres unmarked) [Example 32] the value was under 30 µM.

Regarding `Cc1ccc(NC(=O)CC2C(=O)N(c3ccccc3)C(=S)N2CCc2ccc(Cl)cc2)cc1` (centres unmarked) [Example 37, 2-{3-[2-(4-chlorophenyl)ethyl]-5-oxo-1-phenyl-2-sulfanylideneimidazolidin-4-yl}-N-(4-methylphenyl)acetamide], the EC50 (Hepatitis C virus) is under 5 µM. On the same count and under the same terms, for `O=C(CC1C(=O)N(c2ccccc2)C(=S)N1CCc1ccc(Cl)cc1)Nc1ccc(Cl)c(Cl)c1` (centres unmarked) [Example 38, 2-{3-[2-(4-chlorophenyl)ethyl]-5-oxo-1-phenyl-2-sulfanylideneimidazolidin-4-yl}-N-(3,4-dichlorophenyl)acetamide] the value was under 5 µM. Still for that read-out and setting: for `NC(=O)c1ccc(NC(=O)CC2C(=O)N(c3ccccc3)C(=S)N2CCc2ccc(Cl)cc2)cc1` (centres unmarked) [Example 40, 4-(2-{3-[2-(4-chlorophenyl)ethyl)-5-oxo-1-phenyl-2-sulfanylideneimidazolidin-4-yl}acetamido)benzamide] the value was under 5 µM; for `O=C(CC1C(=O)N(c2ccc(F)cc2)C(=S)N1CCc1ccc(Cl)cc1)Nc1ccc(N2CCOCC2)cc1` (centres unmarked) [Example 41, 2-{3-[2-(4-chlorophenyl)ethyl]-1-(4-fluorophenyl)-5-oxo-2-sulfanylideneimidazolidin-4-yl}-N-[4-(morpholin-4-yl)phenyl]acetamide], under 0.5 µM. For the compound `COc1ccc(CCN2C(=O)N(c3ccc(F)cc3)C(=O)C2CC(=O)Nc2ccc(N(C)C)cc2)cc1` (centres unmarked) [Example 42, N-[4-(dimethylamino)phenyl]-2-[1-(4-fluorophenyl)-3-[2-(4-methoxyphenyl)ethyl]-2,5-dioxoimidazolidin-4-yl]acetamide], the EC50 (Hepatitis C virus) is under 5 µM. Still for that read-out and setting: for `COCCN(C)c1ccc(NC(=O)CC2C(=O)N(c3ccc(F)cc3)C(=O)N2CCc2ccc(OC)cc2)cc1` (centres unmarked) [Example 43, 2-[1-(4-fluorophenyl)-3-[2-(4-methoxyphenyl)ethyl]-2,5-dioxoimidazolidin-4-yl]-N-{4-[(2-methoxyethyl)(methyl)amino]phenyl}acetamide] the value was under 5 µM; for `COc1ccc(CCN2C(=O)N(c3ccc(F)cc3)C(=O)C2CC(=O)Nc2ccc(N(C)C)c(C)c2)cc1` (centres unmarked) [Example 44, N-[4-(dimethylamino)-3-methylphenyl]-2-[1-(4-fluorophenyl)-3-[2-(4-methoxyphenyl)ethyl]-2,5-dioxoimidazolidin-4-yl]acetamide], under 30 µM; for `CN(C)c1ccc(NC(=O)CC2C(=O)N(c3ccc(F)cc3)C(=O)N2CCc2cccs2)cc1` (centres unmarked) [Example 45, N-[4-(dimethylamino)phenyl]-2-[1-(4-fluorophenyl)-2,5-dioxo-3-[2-(thiophen-2-yl)ethyl]imidazolidin-4-yl]acetamide], under 5 µM.

(Values after EP2664616A1, “Hydantoin and thiohydantoin derivatives as antiviral drugs” (priority 2012, dated 2013).)
